One data set deals with Rats. Description: Chronic adjuvant-induced polyarthritis test. It counts as in vivo. The following applies: intragastric; for minimal effective dose: Rattus norvegicus, po, 456 h, 18 days, rats, read-out: Minimum dose to result in a statistically significant reduction [p < 0.05] in the paw volume/body weight ratio; for % Inhibition in the paw volume to body weight ratio: at minimum significant dose 25 mg/kg/day, day 19, rats. The protocol: Chronic adjuvant-induced polyarthritis test:
Rats [50-70 gm] were weighed, ear tagged and intradermally inoculated in the tail base with 2.0 mg of heat killed M. butyricum suspended in 0.05 ml of white paraffin oil [n=12-15 per group]. Compounds were intragastrically administered beginning on the day of inoculation and continued for 18 days. Each daily dose was split [dose volume=0.5 ml/100 gm] and given approximately 7 hours apart. Animals were weighed every 3 days, and the dose was adjusted accordingly. On day 19, animals were sacrificed by inhalation of CO2, weighed, and total hind paw volume was measured by the displacement of water with a plethysmometer (Ugo Basile, Varese, Italy). A group of age-matched naive rats were included. These rats, designated "normal," were not inoculated with adjuvant or gavaged with vehicle.
For individual experiments, the paw volume/body weight ratios for each dose were compared to the ratio for the vehicle treated control group by a two-tailed Dunnett's t-test (p ≤0.05). The Dunnett's test was preceded by a Bartlett's test of variance homogeneity across the dose groups. If the Bartlett's test was significant, an appropriate variance stabilizing transformation was applied to the data, and the Dunnett's test was performed on the transformed data.

The target of data set [1] is T1, Sheep Seminal Vesicle Microsome Cyclooxygenase (Ovis aries, UniProt P05979).
T1 construct: Lyophilized ovine microsome (approximately 1 mg) suspended in 2.9 ml Tris-HCl buffer; from tissue; host or cells: sheep seminal vesicle microsomes, lyophilized
T1 sequence (P05979 25-600): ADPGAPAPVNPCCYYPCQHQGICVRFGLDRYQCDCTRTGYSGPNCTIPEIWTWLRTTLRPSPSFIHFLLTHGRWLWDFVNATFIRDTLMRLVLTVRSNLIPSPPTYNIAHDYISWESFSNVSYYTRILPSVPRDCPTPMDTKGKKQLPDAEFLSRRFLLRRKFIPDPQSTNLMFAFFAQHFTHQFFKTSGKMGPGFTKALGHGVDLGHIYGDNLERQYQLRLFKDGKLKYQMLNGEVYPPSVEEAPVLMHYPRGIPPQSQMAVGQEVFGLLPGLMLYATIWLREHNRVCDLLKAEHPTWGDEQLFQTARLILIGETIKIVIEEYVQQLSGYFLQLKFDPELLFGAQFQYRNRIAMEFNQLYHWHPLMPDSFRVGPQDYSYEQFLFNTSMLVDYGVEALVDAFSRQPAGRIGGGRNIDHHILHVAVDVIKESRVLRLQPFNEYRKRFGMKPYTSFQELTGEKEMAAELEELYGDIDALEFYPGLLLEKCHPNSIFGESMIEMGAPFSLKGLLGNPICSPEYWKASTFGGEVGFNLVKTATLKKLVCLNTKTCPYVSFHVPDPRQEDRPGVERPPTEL
As to the kind of experiment: Inhibition of Sheep Seminal Vesicle Microsome Cyclooxygenase. It counts as biochemical. The note with it: for IC50: sheep seminal vesicle microsomes. The protocol:
The compounds of the present invention evaluated with respect to cyclooxygenase inhibition according to the following assay procedure. Inhibition of Sheep Seminal Vesicle Microsome Cyclooxygenase: This assay was based on oxygen consumption during conversion of arachidonic acid to prostaglandin G2 catalyzed by cyclooxygenase BIOCHEM. 11:3276-3285 (1972), which is incorporated herein by reference. Lyophilized ovine microsome (approximately 1 mg) suspended in 2.9 ml Tris-HCl buffer, pH 8.2, containing 0.7 mM phenol were used as source of arachidonate cyclooxygenase. The inhibitor, 50 μl in DMSO, was added and the mixture was preincubated for 5 minutes at 37° C. Fifty μl of arachidonic acid (final concentration 50 μM) was added to start the reaction. The slopes of the initial rates of oxygen uptake, in the presence and absence of inhibitor, were compared to determine reaction inhibition. Percent inhibition was computed using the following formula: [formula]

Another data set addresses T2, 5-lipoxygenase (Rattus norvegicus, UniProt P12527).
T2 construct: The 100,000×g supernatant fraction of Rat Basophilic Leukemia Cell Homogenate (RBL-1); endogenous in cells; host or cells: RBL-1 (rat basophilic leukemia) cells, 100,000xg supernatant of homogenate
T2 sequence (P12527 1-673): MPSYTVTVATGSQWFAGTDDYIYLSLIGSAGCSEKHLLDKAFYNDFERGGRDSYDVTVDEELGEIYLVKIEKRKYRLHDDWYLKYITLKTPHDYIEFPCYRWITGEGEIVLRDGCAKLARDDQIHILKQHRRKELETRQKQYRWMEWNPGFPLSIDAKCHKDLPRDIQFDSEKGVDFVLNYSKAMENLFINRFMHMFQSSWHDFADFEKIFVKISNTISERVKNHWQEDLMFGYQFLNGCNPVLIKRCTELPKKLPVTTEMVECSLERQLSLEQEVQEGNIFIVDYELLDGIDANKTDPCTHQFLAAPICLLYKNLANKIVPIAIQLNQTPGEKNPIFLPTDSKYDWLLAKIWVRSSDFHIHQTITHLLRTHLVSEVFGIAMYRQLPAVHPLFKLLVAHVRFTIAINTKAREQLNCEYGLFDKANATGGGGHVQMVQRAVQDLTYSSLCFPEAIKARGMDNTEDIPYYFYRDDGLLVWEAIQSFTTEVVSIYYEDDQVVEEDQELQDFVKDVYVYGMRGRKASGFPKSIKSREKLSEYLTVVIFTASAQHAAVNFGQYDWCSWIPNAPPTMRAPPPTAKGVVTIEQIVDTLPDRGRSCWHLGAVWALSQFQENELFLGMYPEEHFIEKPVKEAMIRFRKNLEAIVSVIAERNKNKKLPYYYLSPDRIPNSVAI
Description: Inhibition of 5-lipoxygenase, in vitro (5-HETE formation, RBL-1 homogenate supernatant). It counts as biochemical. The method, then: The compounds of the invention are evaluated with respect to 5-lipoxygenaseinhibition according to the following assay procedure.
Inhibition of 5-lipoxygenase, in vitro:
The 100,000×g supernatant fraction of Rat Basophilic Leukemia Cell Homogenate (RBL-1) serves as a 5-lipoxygenase enzyme source. The enzyme is incubated with [1-^4 C)-arachidonic acid and Ca++ in the presence and absence of test compound. The product of 5-lipoxygenase, 5-hydroxyeicosatetraenoic acid (5-HETE), is separated by thin-layer chromatography and measured by radioactivity. A compound inhibiting 5-HETE synthesis by 30% or more is considered active at that concentration.
For comparison the compound of Formula XX, a known 5-lipoxygenase inhibitor described in U.S. Pat. No. 4,755,524 was used: [drawing 29] (±)[2S*-[[3,5-bis(1,1-dimethylethyl)-4-hydroxyphenyl]thio]-1R*-methylpro poxy]acetic acid.

Data set [2] relates to Human neutrophil superoxide generation. Description: Human neutrophil superoxide generation, FMLP-induced. It is filed as cell-based. The method, then: The compounds of the present invention are evaluated with respect to superoxide modulating activity according to the following assay procedure:
Human neutrophil superoxide generation:
Superoxide generation by formyl-methionyl-leucyl-phenylalanine (FMLP)-stimulated neutrophils was quantitated by the reduction of cytochrome C (Badwey, J. A., Curnutte, J. T. and Karnovsky, M. L., cis-Polyunsaturated fatty acids induce high levels of superoxide production by human neutrophils. J. BIOL. CHEM. 256: 12640-12643, 1981, which is incorporated herein by reference.) To 5 million neutrophils in 2.85 ml of Krebs-Ringer phosphate buffer, pH 7.2, 50 ul of inhibitor (in 10% DMSO/buffer), and 50 ul ferricytochrome C (5 mM, stock) were added and preincubated for 3 minutes at 37° C. Absorption measurements at 550 nm were recorded at start of preincubation. Fifty ul FMLP (6 uM, stock) was added to initiate reaction. A plateau was reached within 3 minutes and this reading minus the initial reading (before addition of FMLP) was used to calculate nanomoles of superoxide generated based on a molar extinction coefficient of 2.1×10^4 cm^-1 mole^-1.
Isolation of human neutrophils:
Human neutrophils were isolated from freshly drawn blood of healthy donors. […] The red cell lysing procedure was repeated, the cells suspended in appropriate buffer (depending on assay) and counted.

The test system of a further data set is COX II enzyme. The following applies: metabolite of nabumetone; cited from earlier work.
For data set [3] the following is noted: insertion of the thio group; cited from earlier work.
The conditions of data set [4]: relative to histamine; cited from earlier work.
The conditions of data set [5]: in vivo; cited from earlier work.

Where two headings read alike, the source gives them in different places.

For `CC(C)(C)c1cc(S[C@@H]2CCCC[C@H]2SCC(=O)O)cc(C(C)(C)C)c1` (relative stereo) [Example 5, trans-[[2-[[3,5-bis(1,1-dimethylethyl)phenyl]thio]cyclohexyl]thio]acetic acid], in the data set with Rats, the minimal effective dose came to 25 mg/kg/day and the “% Inhibition in the paw volume to body weight ratio” value was determined as 64.4%. In data set [1], this compound had an IC50 of 3.1 µM.
For the compound `O=C(O)CS[C@@H]1CCCC[C@H]1Sc1ccccc1` (relative stereo) [Example 7, trans-[[2-(phenylthio)cyclohexyl]thio]acetic acid], the “5-lipoxygenase inhibition (in words)” value on 5-lipoxygenase is given as “did not inhibit either 5-lipoxygenase or cyclooxygenase”. For the same compound, the “superoxide generation (in words)” value in data set [2] was “did inhibit superoxide generation”. For the same compound, the “cyclooxygenase inhibition (in words)” value in data set [1] was “did not inhibit either 5-lipoxygenase or cyclooxygenase”.
Turning to `CC(C)(C)c1cc(S[C@@H]2CCCC[C@H]2OCC(=O)O)cc(C(C)(C)C)c1` (relative stereo) [Example 17, trans-[[2-[[3,5-bis(1,1-dimethylethyl)phenyl]thio]cyclohexyl]oxy]acetic acid], in the data set on Rats, the minimal effective dose worked out at 25 mg/kg/day and the “% Inhibition in the paw volume to body weight ratio” value was 50.8%. Half-maximal inhibition in data set [1] (IC50) was put at 3.8 µM.
With `C[C@H](Sc1cc(C(C)(C)C)c(O)c(C(C)(C)C)c1)[C@@H](C)OCC(=O)O` (relative stereo) [Formula XX, (±)[2S*-[[3,5-bis(1,1-dimethylethyl)-4-hydroxyphenyl]thio]-1R*-methylpropoxy]acetic acid, reference compound], at 5-lipoxygenase, the “5-lipoxygenase inhibition (in words)” value is “inhibited both superoxide generation and 5-lipoxygenase”. The “superoxide generation (in words)” value in data set [2] was “inhibited both superoxide generation and 5-lipoxygenase”.
As for `COc1ccc2cc(CC(=O)O)ccc2c1` [6-methoxy-2-napthylacetic acid], the “selective inhibition of COX II (in words)” value in the data set with COX II enzyme is “selectively inhibit the COX II enzyme”.
On to `CC(C)(C)c1cc(SC2CCOC2=O)cc(C(C)(C)C)c1O` (stereo not shown) [Compound 3], for which the “anti-inflammatory activity (in words)” value in data set [3] is given as “loss of anti-inflammatory activity”.
Regarding `CCCCC/C=C\C\C=C/C=C/C=C/[C@@H](SC[C@H](NC(=O)CC[C@H](N)C(=O)O)C(=O)NCC(=O)O)[C@@H](O)CCCC(=O)O` [LTC4], the “potency versus histamine in causing long lasting bronchoconstricting effects” value in data set [4] is recorded as “at least 100 times”.
Take `CS(=O)(=O)Nc1ccc([N+](=O)[O-])cc1OC1CCCCC1` [N-(2-cyclohexyloxy-4-nitrophenyl)methanesulfonamide]: in data set [5], the “anti-inflammatory activity (in words)” value was “anti-inflammatory” and the “gastric side effects (in words)” value was “lacks gastric side effects”.

The values are drawn from patent US5476944A, “Derivatives of cyclic phenolic thioethers” (G. D. Searle & Co., priority 1994, dated 1995).
